Several values for one entry are separate records, joined by “and”; a condition that tells them apart may be missing. Equal entries are not always repeated. Structures can show the parent of a compound that is named as a salt.
Biological target: CSF-1R (c-fms) (Homo sapiens (Human), UniProt P07333)
Experiment: Fluorescence polarization competition immunoassay (1 nM c-fms; peptide Pi assay)
Format: biochemical
Settings: read-out: 1 nM c-fms; peptide Pi assay - IC-50
Description: Fluorescence Polarization Competition Immunoassay
The kinase reaction was initiated by adding 1 μL of 10 mM ATP in assay buffer. […] Positive and negative control wells were included on each plate, where 4% DMSO in assay buffer was substituted for the compound; in addition, positive control wells received 1.2 μL of 50 mM EDTA (ethylenediaminetetraacetic acid) before the start of the reaction.
The plates were covered, incubated for 30 min at room temperature, and the fluorescence polarization was read on an Analyst plate reader (Molecular Devices). […] Reported IC50 values are the mean of three of at least three determinations.

CSF-1R (c-fms), sequence (P07333 20-972): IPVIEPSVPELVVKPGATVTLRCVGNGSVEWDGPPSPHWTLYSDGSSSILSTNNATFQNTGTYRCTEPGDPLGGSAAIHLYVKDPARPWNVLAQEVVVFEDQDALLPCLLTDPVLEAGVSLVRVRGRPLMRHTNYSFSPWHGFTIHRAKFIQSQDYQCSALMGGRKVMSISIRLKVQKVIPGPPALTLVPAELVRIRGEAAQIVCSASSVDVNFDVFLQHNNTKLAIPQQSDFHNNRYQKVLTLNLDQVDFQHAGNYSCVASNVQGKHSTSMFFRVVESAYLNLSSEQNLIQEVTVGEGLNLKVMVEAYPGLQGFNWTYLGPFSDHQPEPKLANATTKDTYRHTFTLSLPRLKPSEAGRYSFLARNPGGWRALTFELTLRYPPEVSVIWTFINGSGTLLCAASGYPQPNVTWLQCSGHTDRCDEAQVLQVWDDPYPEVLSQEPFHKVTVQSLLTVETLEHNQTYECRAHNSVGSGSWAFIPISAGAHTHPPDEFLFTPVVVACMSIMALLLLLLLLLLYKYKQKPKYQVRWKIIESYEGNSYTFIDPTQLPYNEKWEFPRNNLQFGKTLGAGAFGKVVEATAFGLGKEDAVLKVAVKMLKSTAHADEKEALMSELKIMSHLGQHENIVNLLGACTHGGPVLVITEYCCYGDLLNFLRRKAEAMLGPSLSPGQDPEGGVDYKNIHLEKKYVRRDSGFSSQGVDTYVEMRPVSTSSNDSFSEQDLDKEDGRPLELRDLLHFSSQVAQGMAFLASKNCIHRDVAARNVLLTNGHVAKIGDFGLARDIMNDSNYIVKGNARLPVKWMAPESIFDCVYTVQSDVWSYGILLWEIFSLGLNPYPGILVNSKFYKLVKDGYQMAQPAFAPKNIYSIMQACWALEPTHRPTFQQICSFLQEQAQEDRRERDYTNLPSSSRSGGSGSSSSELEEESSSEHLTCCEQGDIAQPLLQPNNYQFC

Question: How did the IC50 turn out when CS(=O)(=O)c1ncc(C(=O)Nc2ccc(CCN3CCOCC3)cc2C2=CCCCC2)[nH]1 [Example 36, 2-Methanesulfonyl-3H-imidazole-4-carboxylic acid [2-cyclohex-1-enyl-4-(2-morpholin-4-yl-ethyl)-phenyl]-amide hydrochloride] was run?
Answer: > 500 nM

Question: Cc1nc(C(=O)Nc2ccc(CCN3CCOCC3)cc2C2=CCCCC2)[nH]c1C#N [Example 33, 5-Cyano-4-methyl-1H-imidazole-2-carboxylic acid [2-cyclohex-1-enyl-4-(2-morpholin-4-yl-ethyl)-phenyl]-amide hydrochloride] was tested. Which IC50 did it give?
Answer: > 60 nM

Question: C[S+]([O-])c1ncc(C(=O)Nc2ccc(CCN3CCOCC3)cc2C2=CCCCC2)[nH]1 (centres unmarked) [Example 35, 2-Methanesulfinyl-3H-imidazole-4-carboxylic acid [2-cyclohex-1-enyl-4-(2-morpholin-4-yl-ethyl)-phenyl]-amide trifluoroacetic acid salt] was tested. Which IC50 did it give?
Answer: > 500 nM

Question: With O=C(Nc1ccc(CCN2CCOCC2)cc1C1=CCCCC1)c1nc(Cl)c(Cl)[nH]1 [Example 38, 4,5-Dichloro-1H-imidazole-2-carboxylic acid [2-cyclohex-1-enyl-4-(2-morpholin-4-yl-ethyl)-phenyl]-amide trifluoroacetic acid salt] as the molecule, how does the IC50 read?
Answer: > 60 nM

Question: Which IC50 does the source give for O=C(Nc1ccc(CCN2CCOCC2)cc1C1=CCCCC1)c1nc2ccccc2[nH]1 [Example 39, 1H-Benzoimidazole-2-carboxylic acid [2-cyclohex-1-enyl-4-(2-morpholin-4-yl-ethyl)-phenyl]-amide trifluoroacetic acid salt] here?
Answer: > 60 nM

Question: How did the IC50 turn out when CC1(C)CC=C(c2cc(C(C)(C)CN3C[C@@H]4OC(C)(C)O[C@@H]4C3)ccc2NC(=O)c2nc(C#N)c[nH]2)CC1 [Example 140, 4-Cyano-1H-imidazole-2-carboxylic acid {2-(4,4-dimethyl-cyclohex-1-enyl)-4-[2-(2,2-dimethyl-tetrahydro-[1,3]dioxolo[4,5-c]pyrrol-5-yl)-1,1-dimethyl-ethyl]-phenyl}-amide] was run?
Answer: > 100 nM

Tested on: mouse bone-marrow derived macrophages
Experiment: not given
Settings: Mus musculus, BMDM, 30 h, read-out: mCSF driven proliferation BMDM (Mouse) - IC-50 (μM), BrDU incorporation, CSF-1 stimulated, 30 hrs culture

Question: For CC1(C)CC=C(c2cc(C(C)(C)NCCO)ccc2NC(=O)c2nc(C#N)c[nH]2)CC1 [Example 65, 4-Cyano-1H-imidazole-2-carboxylic acid {2-(4,4-dimethyl-cyclohex-1-enyl)-4-[1-(2-hydroxy-ethylamino)-1-methyl-ethyl]-phenyl}-amide hydrochloride], which IC50 is on record?
Answer: 0.0081 µM

Question: With CC1(C)CC=C(c2cc(C(C)(C)N3CCN(CC(=O)O)CC3)ccc2NC(=O)c2nc(C#N)c[nH]2)CC1 [Example 64, (4-{1-[4-[(4-Cyano-1H-imidazole-2-carbonyl)-amino]-3-(4,4-dimethyl-cyclohex-1-enyl)-phenyl]-1-methyl-ethyl}-piperazin-1-yl)-acetic acid, sodium salt] as the molecule, how does the IC50 read?
Answer: 0.2 µM

Question: For N#Cc1cnc(C(=O)Nc2ccc(CN3CCOCC3)cc2C2=CCCCC2)[nH]1 [Example 44, 5-Cyano-1H-imidazole-2-carboxylic acid (2-cyclohex-1-enyl-4-morpholin-4-ylmethyl-phenyl)-amide hydrochloride], which IC50 is on record?
Answer: 0.0164 µM

Question: With CC1(C)CC=C(c2cc(CC(=O)NCCCO)ccc2NC(=O)c2ncc(C#N)[nH]2)CC1 [Example 54, 5-Cyano-1H-imidazole-2-carboxylic acid {2-(4,4-dimethyl-cyclohex-1-enyl)-4-[(3-hydroxy-propylcarbamoyl)-methyl]-phenyl}-amide] as the molecule, how does the IC50 read?
Answer: > 0.1 µM

Question: With O=C(Nc1ccc(CCN2CCOCC2)cc1C1=CCCCC1)c1ncc(Cl)[nH]1 [Example 41, 5-Chloro-1H-imidazole-2-carboxylic acid [2-cyclohex-1-enyl-4-(2-morpholin-4-yl-ethyl)-phenyl]-amide hydrochloride] as the molecule, how does the IC50 read?
Answer: 0.321 µM

Question: Which IC50 does the source give for CC1(C)CC=C(c2cc(C(C)(C)CN3C[C@@H]4OC(C)(C)O[C@@H]4C3)ccc2NC(=O)c2nc(C#N)c[nH]2)CC1 [Example 140, 4-Cyano-1H-imidazole-2-carboxylic acid {2-(4,4-dimethyl-cyclohex-1-enyl)-4-[2-(2,2-dimethyl-tetrahydro-[1,3]dioxolo[4,5-c]pyrrol-5-yl)-1,1-dimethyl-ethyl]-phenyl}-amide] here?
Answer: 0.031 µM

Same assay, conditions: read-out: mCSF driven proliferation BMDM (Mouse) - IC-50; BrDU incorporation, CSF-1 stimulated, 30 hrs culture

Question: COCCNC(C)(C)c1ccc(NC(=O)c2nc(C#N)c[nH]2)c(C2=CCC(C)(C)CC2)c1 [Example 20, 4-Cyano-1H-imidazole-2-carboxy-lic acid{2-(4,4-di-methyl-cyclo-hex-1-enyl)-4-[1-(2-meth-oxy-ethyl-amino)-1-methyl-ethyl]-phenyl}-amide] was tested. Which IC50 did it give?
Answer: 0.0047 µM and 0.0048 µM

Question: How did the IC50 turn out when CN1CCN(C(C)(C)c2ccc(NC(=O)c3nc(C#N)c[nH]3)c(C3=CCC(C)(C)CC3)c2)CC1 [Example 23, 4-Cyano-1H-imidazole-2-carboxy-lic acid{2-(4,4-di-methyl-cyclohex-1-enyl)-4-[1-meth-yl-1-(4-methyl-piperazin-1-yl)-ethyl]-phe-nyl}-amide] was run?
Answer: 0.0033 µM

Question: How did the IC50 turn out when N#Cc1c[nH]c(C(=O)Nc2ccc(CCS(=O)(=O)N3CCOCC3)cc2C2=CCCCC2)n1 [Example 26, 4-Cyano-1H-imidazole-2-carboxylic acid {2-cyclohex-1-enyl-4-[2-(morpholine-4-sulfonyl)-ethyl]-phenyl}-amide] was run?
Answer: 0.0059 µM

Same assay, conditions: read-out: mCSF driven proliferation BMDM (Mouse) - IC-50; BrDU incorporation, CSF-1 stimulated, 30 hrs culture; hydrochloride

Question: How did the IC50 turn out when N#Cc1cnc(C(=O)Nc2ccc(CN3CCOCC3)cc2C2=CCCCC2)[nH]1 [Example 44, 5-Cyano-1H-imidazole-2-carboxylic acid (2-cyclohex-1-enyl-4-morpholin-4-ylmethyl-phenyl)-amide hydrochloride] was run?
Answer: 0.0146 µM

Biological target: c-fms (Homo sapiens (Human), UniProt P07333)
Experiment: 10 nM c-fms auto-Pi assay
Format: biochemical
Settings: cell printed as 0.05@0.002–2; read-out: 10 nM c-fms auto-Pi assay - IC-50

c-fms, sequence (P07333 20-972): as above

Question: How did the IC50 turn out when CCN(C)CCCc1ccc(NC(=O)c2ccc(C#N)o2)c(N2CCC(C)CC2)c1 [Example 55, 5-Cyano-furan-2-carboxylic acid [4-[3-(ethyl-methyl-amino)-propyl]-2-(4-methyl-piperidin-1-yl)-phenyl]-amide] was run?
Answer: 50 nM

— patent US8674100B2, “Inhibitors of C-FMS kinase” (Janssen Pharmaceutica, N.V., priority 2006, dated 2014)
